Test results: PubChem BioAssay (NCI)
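In this assay, cells in 96-well plates receive the compound at five concentrations for 48 hours. Endpoints are linearly interpolated between the surrounding concentrations. TGI denotes the concentration required for complete inhibition of growth.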

System: MDA-MB-435
Experiment: NCI tumour cell line growth inhibition, 48 h

| Compound | TGI |
| --- | --- |
| Cc1nc2ccccc2c(=O)n1NC(=O)c1ccccn1 | > 100 µM |
| Cc1c2c(cc3c1C(=O)C(=O)C([C@@H](C)CO)=C3O)C(C)(C)CCC2 | > 100 µM |
| C[N+]12CCCCC1C(COc1cccc3cccnc13)CCC2 (stereo not drawn) | > 100 µM |
| C1C2CC3CC1CC(c1nn4c(C56CC7CC(CC(C7)C5)C6)nnc4s1)(C2)C3 | > 100 µM |
| CC1=CC[C@H](C[C@H](C#CCCCC2OCCO2)O[Si](C(C)C)(C(C)C)C(C)C)C(=O)CC1 | > 100 µM |
| Cc1nc(N)c(N2CCN(S(N)(=O)=O)CC2)c(=O)[nH]1 | > 100 µM |
| Cc1cccc(N/C(=C(/C(Cl)=C(Cl)Cl)[N+](=O)[O-])n2nnc3ccccc32)c1 | 38.8 µM |
| CC(=O)Nc1ccc(-c2nc3ccccc3s2)cc1Br | > 100 µM |
| COC(=O)C(=O)C(C(=O)C(=O)Nc1ccccc1C(N)=O)c1nc2ccc(Cl)cc2[nH]c1=O (stereo not drawn) | > 100 µM |
| COC(=O)c1ccccc1/C=C1\Cc2c(ccc3c2CCC3)C1=O | > 100 µM |
| O=C1CSC(c2ccccc2)N1c1nc2cc3sc(N4C(=O)CSC4c4ccccc4)nc3cc2s1 (stereo not drawn) | > 100 µM |
| Cc1sc2nc(N(C)C)oc(=O)c2c1C | > 100 µM |
| CC(=O)OC1=NN=C2COC(c3ccccc3OC(C)=O)=NN2C1 | > 50 µM |
| CC12CCCC(C(=O)O)(C1)[C@H](C(C)(C)C(=O)O)CC2 (stereo partly drawn) | > 100 µM |
| CCOc1cccc(C=Nc2ccccc2SSc2ccccc2N=Cc2cccc(OCC)c2O)c1O | 23.7 µM |
| OCC1OC(NC(=S)NCCC(F)(F)C(F)(F)C(F)(F)C(F)(F)C(F)(F)C(F)(F)F)C(O)C(O)C1O (stereo not drawn) | > 100 µM |
| CC1=NN(c2ccccc2)C2(C1)C(Cl)C(=O)N2c1nc2ccccc2s1 (stereo not drawn) | > 100 µM |
| Cn1c(-c2cccs2)cc(-c2cccs2)c1-c1cccs1 | > 100 µM |
| CC1(C)C2CC(O)C1(C)CC2=O (stereo not drawn) | > 100 µM |
| O=S(=O)(O)CCSSCCS(=O)(=O)O | > 1000 µM |
| CC[C@@]1(O)C(=O)OCc2c1cc1n(c2=O)Cc2c-1nc1ccccc1c2/C=N\NC(=O)C[n+]1ccccc1 | > 100 µM |
| CC(C)OC(=O)c1ccc(NCC2=CC(=O)C=CC2=O)cc1 | 26.4 µM |
| O=C1c2c(Br)sc(Br)c2C(NC(=O)C(F)(F)F)C1O (stereo not drawn) | 54.3 µM |
| CC(C)(C)c1cc(S(=O)(=O)O)c2oc(-c3ccccc3)cc(=O)c2c1 | > 100 µM |

| Compound | TGI |
| --- | --- |
| COc1ccc(N2C(=O)C3c4[nH]c5ccc(C)cc5c4C4CCC(C(C)(C)C)CC4C3C2=O)cc1 (stereo not drawn) | > 100 µM |
| CC(=O)OCC1OC(NC(=S)Nn2c(=O)[nH]c3ccccc3c2=O)C(OC(C)=O)C(OC(C)=O)C1OC(C)=O (stereo not drawn) | > 100 µM |
| Cc1ccc(S(=O)(=O)NC(=O)NCc2ccc(S(N)(=O)=O)cc2)cc1 | > 100 µM |
| CSC1=N/C(=C\c2ccc(C)cc2)C(=O)N1 | > 100 µM |
| CC1=NN(c2cccc(S(=O)(=O)O)c2)C2(C1)C(Cl)C(=O)N2c1nc2ccccc2s1 (stereo not drawn) | 21.2 µM |
| COC(=O)C1=CC2C(=O)c3ccccc3C1(c1ccccc1)N2C1CCCCC1 (stereo not drawn) | 43.4 µM |
| CC(NC(=O)OCc1ccccc1)NC(=O)OC(C)(C)C (stereo not drawn) | > 100 µM |
| NC1C/C(=N\O)c2c(Cl)sc(Cl)c21 (stereo not drawn) | 29.5 µM |
| COc1ccc(CNc2ccn(C3OC(CO)C(O)C3O)c(=O)n2)cc1 (stereo not drawn) | > 100 µM |
| NCc1ccc(-c2ccc(CN)s2)s1 | > 100 µM |
| O=C1c2ccccc2-c2nnc(-c3ccc([N+](=O)[O-])cc3)cc21 | > 10 µM |
| COc1cc(C2C3=C(COC3=O)OC(C)(C)Oc3cc4c(cc32)OCO4)cc(OC)c1O (stereo not drawn) | 0.645 µM |
| COc1ccc(CC2Cc3ccccc3CCN2)cc1OC (stereo not drawn) | > 50 µM |
| COc1cc(C(=O)NNC(=O)c2cc(Br)ccc2NC(=O)c2cccs2)cc(OC)c1OC | 50 µM |
| COc1nn(Cc2ccccn2)c2ccc([N+](=O)[O-])cc12 | > 100 µM |
| CCOC(=O)CC[C@H](N)C(=O)N[C@@H](Cc1ccc(N(CCCl)CCCl)cc1)C(=O)OCC | 2.83 µM |
| C/C(Cl)=N/OC(=O)Nc1ccc(F)c([N+](=O)[O-])c1 | 30.8 µM |
| O=[N+]([O-])/C(C(Cl)=C(Cl)Cl)=C1\Nc2ccc([N+](=O)[O-])cc2N1 | > 100 µM |
| CCCN(CCc1ccc(-c2ccccc2)cc1)CCc1ccc2n[nH]nc2c1 | 28.6 µM |
| Nc1cc(Cl)cc2cc(Cl)cnc12 | > 100 µM |
| CN1CCC23c4c5ccc(Oc6nnnn6-c6ccccc6)c4OC2c2[nH]c4ccccc4c2CC3(O)C1C5 (stereo not drawn) | 8.41 µM |
| CCSc1nnc(Sc2c3ccccc3nc3ccccc23)s1 | > 61.8 µM |
| O=C(Nc1ccc(Cl)cc1)c1cc(S(=O)(=O)Nc2n[nH]c(Nc3ccc4ccccc4c3)n2)c(SSc2cc(Cl)c(C(=O)Nc3ccc(Cl)cc3)cc2S(=O)(=O)Nc2n[nH]c(Nc3ccc4ccccc4c3)n2)cc1Cl | > 80.3 µM |
| O=S(=O)(/N=S(/Nc1ccccc1)C(Cl)Cl)c1ccccc1 (stereo not drawn) | > 100 µM |
